Results reported in US20240207373A1, “CYCLIC PEPTIDES FROM THE C-TERMINUS OF ACETYLCHOLINESTERASE FOR TREATMENT OF SKIN DISORDERS AND FOR COSMETICAL USE” (priority 2020, published 2024).
Where a SMILES comes first, the peptide text is derived from it. Where no end group is shown, it is not given here.

Experiments:
HaCaT cell line = test: Cell viability (cell toxicity) in HaCaT cell line; format: cell-based, human; details: FIG. 3A
Source text: The inventors next examined the ability of the acetylcholinesterase-derived peptides, T30 and T15, to induce proliferation of the HaCaT cell line and also tested cell viability to determine cell toxicity of NBP-14, T15 and T30 to the HaCaT cell line.

[1] = test system: keratinocyte cell line HaCaTs; test: Intracellular calcium influx in keratinocyte cell line HaCaTs; format: cell-based, human; details: in presence of T30, FIG. 2
Source text: As described in the examples, the inventors performed intracellular calcium imaging and cell proliferation assays on the keratinocyte cell line, HaCaTs, a widely used and characterized model for human keratinocytes.
The inventors examined the ability of the acetylcholinesterase-derived linear peptides, T30 and T15, and the cyclic peptide NBP-14, to induce intracellular calcium influx into the keratinocyte cell line, and the results are shown in FIG. 2.

Molecule	cell viability / cytotoxic effects (HaCaT cell line)	inhibition of T30-induced intracellular calcium influx [1]
KAEFHRWSSYMVHWKNQFDHYSKQDRCSDL [T30]	do not show induced significant cytotoxic effects	–
NQFDHYSKQDRCSDL [T15]	do not show induced significant cytotoxic effects	–
CSCC[C@@H]1NC(=O)[C@H](Cc2ccc(O)cc2)NC(=O)[C@H](CO)NC(=O)[C@H](CO)NC(=O)[C@H](Cc2c[nH]c3ccccc23)NC(=O)[C@H](CCCNC(=N)N)NC(=O)[C@H](Cc2c[nH]cn2)NC(=O)[C@H](Cc2ccccc2)NC(=O)[C@H](CCC(=O)O)NC(=O)[C@H](C)NC(=O)[C@H](CCCCN)NC(=O)[C@H](Cc2c[nH]c3ccccc23)NC(=O)[C@H](Cc2c[nH]cn2)NC(=O)[C@H](C(C)C)NC1=O [NBP-14] (cyclo(AEFHRWSSYMVHWK))	do not show induced significant cytotoxic effects	significantly inhibit the effects of T30
